# Measured values: ChEMBL document CHEMBL5154636, “Discovery of STAT3 and Histone Deacetylase (HDAC) Dual-Pathway Inhibitors for the Treatment of Solid Cancer” (J Med Chem, 2021)
# What was measured:
# MDA-MB-231 = assay: Cytotoxicity against human MDA-MB-231 cells assessed as reduction in cell viability incubated for 48 hrs by MTT assay; type: functional, cell-based; conditions: MDA-MB-231, 48 h
# HCT-116 = assay: Cytotoxicity against human HCT-116 cells assessed as reduction in cell viability incubated for 48 hrs by MTT assay; type: functional, cell-based; conditions: HCT-116, 48 h
# [1] = Acute toxicity in po dosed ICR mouse assessed as maximum tolerated dose measured after 7 days; type: organism-based; conditions: in vivo, time 7 day
# MCF-10A = assay: Cytotoxicity against human MCF-10 A cells assessed as reduction in cell viability at 32 uM incubated for 48 hrs by MTT assay relative to control; type: toxicity, cell-based
# L02 = assay: Cytotoxicity against human L02 cells assessed as reduction in cell viability at 32 uM incubated for 48 hrs by MTT assay relative to control; type: toxicity, cell-based; conditions: l02, 48 h
structure (smiles),measurement,setting,value
COc1cc(/C=C/c2ccc(OCCN3CCN(CC(=O)NO)CC3)cc2)cc(OC)c1,IC50,MDA-MB-231,7.42 µM
same,IC50,HCT-116,8.87 µM
COc1cc(/C=C/c2ccc(OCCc3cn(CC(=O)NO)nn3)cc2)cc(OC)c1,IC50,MDA-MB-231,6.52 µM
same,IC50,HCT-116,7.44 µM
COc1cc(/C=C/c2ccc(O)cc2)cc(OC)c1 [PTEROSTILBENE],IC50,MDA-MB-231,31.2 µM
same,MTD at 168 h,[1],> 400 mg/kg
same,Activity,MCF-10A,Non-Toxic
same,Activity,L02,Non-Toxic
same,IC50,HCT-116,34.1 µM
COc1cc(/C=C/c2ccc(OCc3ccc(C(=O)NO)cc3)cc2)cc(OC)c1,IC50,MDA-MB-231,6.88 µM
same,IC50,HCT-116,10.4 µM
COc1cc(/C=C/c2ccc(OCCCCCC(=O)NO)cc2)cc(OC)c1,IC50,MDA-MB-231,3.56 µM
same,IC50,HCT-116,4.1 µM
COc1cc(/C=C/c2ccc(OCc3ccccc3C(=O)NO)cc2)cc(OC)c1,IC50,MDA-MB-231,7.18 µM
same,IC50,HCT-116,13.9 µM
COc1cc(/C=C/c2ccc(OCCCCC(=O)NO)cc2)cc(OC)c1,IC50,MDA-MB-231,4.21 µM
same,IC50,HCT-116,3.35 µM
COc1cc(/C=C/c2ccc(NCc3ccc(/C=C/C(=O)NO)cc3)cc2)cc(OC)c1,IC50,MDA-MB-231,5.95 µM
same,IC50,HCT-116,11.2 µM
O=C(CCCCCCC(=O)Nc1ccccc1)NO [VORINOSTAT],MTD at 168 h,[1],> 400 mg/kg
same,Activity,MCF-10A,24%
same,Activity,L02,26%
COc1cc(/C=C/c2ccc(OCc3cccc(C(=O)NO)c3)cc2)cc(OC)c1,IC50,MDA-MB-231,9.22 µM
same,IC50,HCT-116,13.7 µM
COc1cc(/C=C/c2ccc(OCCCCCCCC(=O)NO)cc2)cc(OC)c1,IC50,MDA-MB-231,5.05 µM
same,IC50,HCT-116,12.6 µM
COc1cc(/C=C/c2ccc(OCCCC(=O)NO)cc2)cc(OC)c1,IC50,MDA-MB-231,3.89 µM
same,IC50,HCT-116,5.2 µM
